Measurements as given in patent US20190225647A1, “ANTIGENIC PEPTIDES FOR THE DIAGNOSIS, THERAPY MONITORING AND/OR TREATMENT OF PSORIASIS VULGARIS” (Ludwig-Maximilians-Universität München, priority 2015, published 2019).

Assays:
[1] = tested on: CD8+ T cells from psoriasis patients; assay: Staining of PBMC from psoriasis patients with FITC-labelled HLA-C*06:02-peptide dextramers; assay type: binding, human; details: flow cytometry
Description: We used FITC-labelled HLA-C*06:02-peptide dextramers to stain CD8^+ T cells from psoriasis patients. […] Thus, the peptides can be used in complex with HLA-C dextramers to address autoreactive T cells in blood of psoriasis patients. • Autoantigenic peptides complexed with HLA-C*06:02-multimers can be used to identify autoreactive CD8^+ T cells in psoriasis. […]
Fluorescent dextramers were prepared of HLA-C*06:02 and antigenic or control peptides. […] PBMC from psoriasis patients were incubated with standard dilutions of the HLA-C*06:02-peptide dextramers and a phycoerythrin-labelled CD8 antibody and the frequency of double stained cells subsequently determined by flow cytometry on a FACScan flow cytometer. Data were analyzed by FlowJo software 887.

[2] = tested on: HLA-class I; assay type: cell-based; details: HLA-C*06:02-positive primary human melanocytes preincubated with IFN-γ
Excerpt: When assessing the results given below, however, it needs to be considered that the percentage of activated i.e. green-fluorescing cells in this complex cell-based recombinant assay may differ between different experiments. It may be influenced by the stability of the respective hybridoma cell batch and, in co-culture experiments, by the quantitative ratio of stimulatory and hybridoma cells, which decides the probability of cell-cell contacts (Siewert et al., 2011).
We isolated primary melanocytes from the skin and seeded them in explant culture. Cell type was confirmed by the contents of brownish melanosomes and staining with a p75-specific antibody against melanocytes. […] This effect was further enhanced, when HLA-C*06:02-positive melanocytes were preincubated with interferon (IFN)-γ, which increases the expression of HLA-class I molecules (FIG. 2C). […] TCR-hybridoma activation was HLA-restricted.
(B) TCR-hybridoma activation by HLA-C*06:02-positive (left) or HLA-C*06:02-negative (right) primary human melanocytes (MC) in the absence or presence of IFN-γ or a HLA-class I blocking antibody. Frequency of NFAT-sGFP^+ hybridoma cells was assessed by flow cytometry and normalized to the maximum value induced by CD3 activation in the same experiment. […]

| Molecule | staining / binding of CD8+ blood T cells by HLA-C*06:02-peptide dextramers [1] | effect of IFN-γ addition on TCR-hybridoma activation [2] |
| --- | --- | --- |
| VRHDGGNVL [unrelated peptide (Falk et al., 1993), HLA-C*06:02 ligand, negative control complexed with HLA-C*06:02-dextramers] | did not bind | – |
| IFN-γ: interferon-γ, increases the expression of HLA-class I molecules (protein, UniProt P01579 24-161, looked up) Interferon gamma: QDPYVKEAENLKKYFNAGHSDVADNGTLFLGILKNWKEESDRKIMQSQIVSFYFKLFKNFKDDQSIQKSVETIKEDMNVKFFNSNKKKRDDFEKLTNYSVTDLNVQRKAIHELIQVMAELSPAAKTGKRKRSQMLFRG | – | increased |
